Data reported in patent US9695155B2, “Herbicidal substituted pyrimidinyloxy benzene compounds” (E. I. DU PONT DE NEMOURS AND COMPANY, priority 2013, dated 2017).

Tests used:
cocklebur = assay: Test E preemergence; format: in vivo, Xanthium strumarium; conditions: for Cocklebur plant response rating: scale 0 to 100 (0 no effect, 100 complete control); for Plant response rating, Cocklebur: scale 0 to 100, 0 no effect, 100 complete control
From the text: Seeds of plant species selected from corn (Zea mays), soybean (Glycine max), velvetleaf (Abutilon theophrasti), lambsquarters (Chenopodium album), wild poinsettia (Euphorbia heterophylla), palmer pigweed (Amaranthus palmeri), waterhemp (common waterhemp, Amaranthus rudis), surinam grass (Brachiaria decumbens), large (Lg) crabgrass (Digitaria sanguinalis), Brazilian crabgrass (Digitaria horizontalis), fall panicum (Panicum dichotomiflorum), giant foxtail (Setaria faberii), green foxtail (Setaria viridis), goosegrass (Eleusine indica), johnsongrass (Sorghum halepense), ragweed (common ragweed, Ambrosia elatior), barnyardgrass (Echinochloa crus-galli), sandbur (southern sandbur, Cenchrus echinatus), arrowleaf sida (Sida rhombifolia), Italian ryegrass (Lolium multiflorum), dayflower (Virginia (VA) dayflower, Commelina virginica), field bindweed (Convolvulus arvensis), morningglory (Ipomoea coccinea), nightshade (eastern black nightshade, Solanum ptycanthum), kochia (Kochia scoparia), yellow nutsedge (Cyperus esculentus), cocklebur (common cocklebur, Xanthium strumarium), smartweed (ladysthumb smartweed, and hairy beggarticks (Bidens pilosa), were planted into a silt loam soil and treated preemergence with test chemicals formulated in a non-phytotoxic solvent mixture which included a surfactant.
At the same time, plants from these crop and weed species and also horseweed (Canada horseweed, Conyza canadensis), waterhemp_RES1, (ALS & Triazine resistant common waterhemp, Amaranthus rudis), and waterhemp_RES2, (ALS & HPPD resistant common waterhemp, Amaranthus rudis) were planted in pots containing Redi-Earth® planting medium (Scotts Company, 14111 Scottslawn Road, Marysville, Ohio 43041) comprising spaghnum peat moss, vermiculite, wetting agent and starter nutrients were treated with postemergence applications of test chemicals formulated in the same manner. Plants ranged in height from 2 to 18 cm for postemergence treatments (1- to 4-leaf stage). Treated plants and controls were maintained in a greenhouse for 14 to 21 days, after which time all species were compared to controls and visually evaluated. Plant response ratings, summarized in Table E, are based on a scale of 0 to 100 where 0 is no effect and 100 is complete control. A dash (-) response means no test result.

barnyardgrass = assay: Test E postemergence; format: in vivo, Echinochloa crus-galli
Outline: (§1)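 Compound in a non-phytotoxic solvent mixture with surfactant was applied preemergence to seeds in silt loam soil, or postemergence to plants 2 to 18 cm tall grown in peat-based potting medium. Plants were kept in a greenhouse for 14 to 21 days, then rated visually against untreated controls on a 0 (no effect) to 100 (complete control) scale.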

Brazilian crabgrass = assay: Test E postemergence; format: in vivo, Digitaria horizontalis
Outline: as §1

soybean = assay: Test E postemergence; format: in vivo, Glycine max
Outline: as §1

speedwell = assay: Test D preemergence; format: in vivo, Veronica persica; conditions: Veronica persica, pre-emergence, 16 g ai/ha, scale 0 (no effect) to 100 (complete control), read-out: Plant response rating, Speedwell
Outline: (§2)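 Greenhouse herbicide screen. Sowing into silt loam for preemergence application; foliar application to 2–18 cm seedlings in potting mix for postemergence. 0–100 visual control rating after 7–21 d.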

bluegrass = assay: Test D preemergence; format: in vivo, Poa annua; conditions: Poa annua, pre-emergence
Outline: as §2

field violet [1] = assay: Test D postemergence; format: in vivo, Viola arvensis; conditions: Viola arvensis, post-emergence
Outline: as §2

field violet [2] = assay: Test D preemergence; format: in vivo, Viola arvensis; conditions: Viola arvensis, pre-emergence
Outline: as §2

kochia = assay: Test D postemergence; format: in vivo, Kochia scoparia; conditions: Bassia scoparia, post-emergence
Outline: as §2

pigweed = assay: Test D postemergence; format: in vivo, Amaranthus retroflexus; conditions: Amaranthus retroflexus, post-emergence
Outline: as §2

spring wheat = assay: Test D preemergence; format: in vivo, Triticum aestivum; conditions: Triticum aestivum, pre-emergence
Outline: as §2

winter wheat = assay: Test D preemergence; format: in vivo, Triticum aestivum; conditions: Triticum aestivum, pre-emergence
Outline: as §2

canarygrass = assay: Test D postemergence; format: in vivo, Phalaris minor; conditions: Phalaris minor, post-emergence
Outline: as §2

oilseed rape = assay: Test D preemergence; format: in vivo, Brassica napus; conditions: Brassica napus, pre-emergence
Outline: as §2

[3] = Postemergence, 31 g ai/ha, scale 0 to 100
[4] = Postemergence, 62 g ai/ha, scale 0 to 100
[5] = Postemergence, 125 g ai/ha, scale 0 to 100
[6] = postemergence, 8 g ai/ha, scale 0 to 100, 0 no effect, 100 complete control
[7] = postemergence, 16 g ai/ha, scale 0 to 100, 0 no effect, 100 complete control

FC(F)(F)c1cnn(-c2c(Cl)cccc2Oc2ncc(Cl)cn2)c1 [Compound 167]
Cocklebur plant response rating (cocklebur; 16 g ai/ha): 0
Cocklebur plant response rating (cocklebur; 31 g ai/ha): 0
Cocklebur plant response rating (cocklebur; 62 g ai/ha): 100
Plant response rating, Cocklebur (cocklebur; 125 g ai/ha): 90

N#Cc1cccc(Oc2ncc(F)cn2)c1-n1cc(Cl)cn1 [Compound 73]
Cocklebur plant response rating (cocklebur; 16 g ai/ha): 0
Cocklebur plant response rating (cocklebur; 31 g ai/ha): 0
Plant response rating, Cocklebur (cocklebur; 250 g ai/ha): 25

Clc1cnc(Oc2cccc(Br)c2-n2cc(Br)cn2)nc1 [Compound 65]
Plant response rating, Barnyardgrass (barnyardgrass; [3]): 0
Plant response rating, Barnyardgrass (barnyardgrass; [4]): 0
Plant response rating, Barnyardgrass (barnyardgrass; [5]): 0
Plant response rating, Barnyardgrass (barnyardgrass; [6]): 0
Plant response rating, Barnyardgrass (barnyardgrass; [7]): 0
Plant response rating, Crabgrass, Brazil (Brazilian crabgrass; [3]): 10
Plant response rating, Crabgrass, Brazil (Brazilian crabgrass; [4]): 10
Plant response rating, Crabgrass, Brazil (Brazilian crabgrass; [5]): 15
Plant response rating, Crabgrass, Brazil (Brazilian crabgrass; [6]): 0
Plant response rating, Crabgrass, Brazil (Brazilian crabgrass; [7]): 0
Plant response rating, Soybean (soybean; [3]): 20
Plant response rating, Soybean (soybean; [4]): 50
Plant response rating, Soybean (soybean; [5]): 98
Plant response rating, Soybean (soybean; [6]): 15
Plant response rating, Soybean (soybean; [7]): 20

FC(F)(F)c1cnn(-c2ccccc2Oc2ncc(Br)cn2)c1 [Compound 18, 5-bromo-2-[2-[4-(trifluoromethyl)-1H-pyrazol-1-yl]phenoxy]pyrimidine]
pest or weed control at 16 g/ha (speedwell): 50%
pest or weed control at 16 g/ha (bluegrass; 16 g ai/ha, scale 0 (no effect) to 100 (complete control), read-out: Plant response rating, Bluegrass): 10%
pest or weed control at 31 g/ha (bluegrass; 31 g ai/ha, scale 0-100, read-out: Plant response rating, Bluegrass): 30%
pest or weed control at 62 g/ha (bluegrass; 62 g ai/ha, scale 0-100, read-out: Plant response rating, Bluegrass): 70%
pest or weed control at 125 g/ha (bluegrass; 125 g ai/ha, scale 0-100, read-out: Plant response rating, Bluegrass): 100%
pest or weed control at 250 g/ha (bluegrass; 250 g ai/ha, scale 0-100, read-out: Plant response rating, Bluegrass): 100%
pest or weed control at 16 g/ha (field violet [1]; 16 g ai/ha, scale 0-100, read-out: Plant response rating, Field Violet): 55%
pest or weed control at 31 g/ha (field violet [1]; 31 g ai/ha, scale 0 to 100 (0 no effect, 100 complete control), read-out: Plant response rating, Field Violet): 80%
pest or weed control at 62 g/ha (field violet [1]; 62 g ai/ha, scale 0 to 100 (0 no effect, 100 complete control), read-out: Plant response rating, Field Violet): 65%
pest or weed control at 125 g/ha (field violet [1]; 125 g ai/ha, scale 0 to 100 (0 no effect, 100 complete control), read-out: Plant response rating, Field Violet): 80%
pest or weed control at 250 g/ha (field violet [1]; 250 g ai/ha, scale 0 to 100 (0 no effect, 100 complete control), read-out: Plant response rating, Field Violet): 90%
pest or weed control at 16 g/ha (field violet [2]; 16 g ai/ha, scale 0 (no effect) to 100 (complete control), read-out: Plant response rating, Field Violet): 65%
pest or weed control at 31 g/ha (field violet [2]; 31 g ai/ha, scale 0-100, read-out: Plant response rating, Field Violet): 70%
pest or weed control at 62 g/ha (field violet [2]; 62 g ai/ha, scale 0-100, read-out: Plant response rating, Field Violet): 85%
pest or weed control at 125 g/ha (field violet [2]; 125 g ai/ha, scale 0-100, read-out: Plant response rating, Field Violet): 85%
pest or weed control at 250 g/ha (field violet [2]; 250 g ai/ha, scale 0-100, read-out: Plant response rating, Field Violet): 90%
pest or weed control at 16 g/ha (kochia; 16 g ai/ha, scale 0-100, read-out: Plant response rating, Kochia): 35%
pest or weed control at 31 g/ha (kochia; 31 g ai/ha, scale 0 to 100 (0 no effect, 100 complete control), read-out: Plant response rating, Kochia): 85%
pest or weed control at 62 g/ha (kochia; 62 g ai/ha, scale 0 to 100 (0 no effect, 100 complete control), read-out: Plant response rating, Kochia): 90%
pest or weed control at 125 g/ha (kochia; 125 g ai/ha, scale 0 to 100 (0 no effect, 100 complete control), read-out: Plant response rating, Kochia): 100%
pest or weed control at 250 g/ha (kochia; 250 g ai/ha, scale 0 to 100 (0 no effect, 100 complete control), read-out: Plant response rating, Kochia): 100%
pest or weed control at 16 g/ha (pigweed; 16 g ai/ha, scale 0-100, read-out: Plant response rating, Pigweed): 65%
pest or weed control at 31 g/ha (pigweed; 31 g ai/ha, scale 0 to 100 (0 no effect, 100 complete control), read-out: Plant response rating, Pigweed): 75%
pest or weed control at 62 g/ha (pigweed; 62 g ai/ha, scale 0 to 100 (0 no effect, 100 complete control), read-out: Plant response rating, Pigweed): 75%
pest or weed control at 125 g/ha (pigweed; 125 g ai/ha, scale 0 to 100 (0 no effect, 100 complete control), read-out: Plant response rating, Pigweed): 95%
pest or weed control at 250 g/ha (pigweed; 250 g ai/ha, scale 0 to 100 (0 no effect, 100 complete control), read-out: Plant response rating, Pigweed): 95%
plant injury at 16 g/ha (spring wheat; 16 g ai/ha, scale 0 (no effect) to 100 (complete control), read-out: Plant response rating, Wheat, Spring): 0%
plant injury at 31 g/ha (spring wheat; 31 g ai/ha, scale 0 (no effect) to 100 (complete control), read-out: Plant response rating, Wheat, Spring): 0%
plant injury at 62 g/ha (spring wheat; 62 g ai/ha, scale 0-100, read-out: Plant response rating, Wheat, Spring): 0%
plant injury at 125 g/ha (spring wheat; 125 g ai/ha, scale 0-100, read-out: Plant response rating, Wheat, Spring): 5%
plant injury at 250 g/ha (spring wheat; 250 g ai/ha, scale 0-100, read-out: Plant response rating, Wheat, Spring): 15%
plant injury at 16 g/ha (winter wheat; 16 g ai/ha, scale 0 (no effect) to 100 (complete control), read-out: Plant response rating, Wheat, Winter): 0%
plant injury at 31 g/ha (winter wheat; 31 g ai/ha, scale 0 (no effect) to 100 (complete control), read-out: Plant response rating, Wheat, Winter): 0%
plant injury at 62 g/ha (winter wheat; 62 g ai/ha, scale 0-100, read-out: Plant response rating, Wheat, Winter): 5%
plant injury at 125 g/ha (winter wheat; 125 g ai/ha, scale 0-100, read-out: Plant response rating, Wheat, Winter): 5%
plant injury at 250 g/ha (winter wheat; 250 g ai/ha, scale 0-100, read-out: Plant response rating, Wheat, Winter): 40%
pest or weed control at 16 g/ha (canarygrass; 16 g ai/ha, scale 0-100, read-out: Plant response rating, Canarygrass): 10%
pest or weed control at 31 g/ha (canarygrass; 31 g ai/ha, scale 0 to 100 (0 no effect, 100 complete control), read-out: Plant response rating, Canarygrass): 15%
pest or weed control at 62 g/ha (canarygrass; 62 g ai/ha, scale 0 to 100 (0 no effect, 100 complete control), read-out: Plant response rating, Canarygrass): 15%
pest or weed control at 125 g/ha (canarygrass; 125 g ai/ha, scale 0 to 100 (0 no effect, 100 complete control), read-out: Plant response rating, Canarygrass): 20%
pest or weed control at 250 g/ha (canarygrass; 250 g ai/ha, scale 0 to 100 (0 no effect, 100 complete control), read-out: Plant response rating, Canarygrass): 35%
plant injury at 16 g/ha (oilseed rape; 16 g ai/ha, scale 0 (no effect) to 100 (complete control), read-out: Plant response rating, Oilseed Rape): 40%
plant injury at 31 g/ha (oilseed rape; 31 g ai/ha, scale 0-100, read-out: Plant response rating, Oilseed Rape): 30%
plant injury at 62 g/ha (oilseed rape; 62 g ai/ha, scale 0-100, read-out: Plant response rating, Oilseed Rape): 100%
plant injury at 125 g/ha (oilseed rape; 125 g ai/ha, scale 0-100, read-out: Plant response rating, Oilseed Rape): 100%
plant injury at 250 g/ha (oilseed rape; 250 g ai/ha, scale 0-100, read-out: Plant response rating, Oilseed Rape): 100%
Cocklebur plant response rating (cocklebur; 62 g ai/ha): 0
